These molecules were tested against Adenylate cyclase type 5 (Homo sapiens, UniProt O95622) (assay: Inhibitory concentration against Type V Adenyl Cyclase enzyme).
Sequence of Adenylate cyclase type 5 (O95622 whole entry): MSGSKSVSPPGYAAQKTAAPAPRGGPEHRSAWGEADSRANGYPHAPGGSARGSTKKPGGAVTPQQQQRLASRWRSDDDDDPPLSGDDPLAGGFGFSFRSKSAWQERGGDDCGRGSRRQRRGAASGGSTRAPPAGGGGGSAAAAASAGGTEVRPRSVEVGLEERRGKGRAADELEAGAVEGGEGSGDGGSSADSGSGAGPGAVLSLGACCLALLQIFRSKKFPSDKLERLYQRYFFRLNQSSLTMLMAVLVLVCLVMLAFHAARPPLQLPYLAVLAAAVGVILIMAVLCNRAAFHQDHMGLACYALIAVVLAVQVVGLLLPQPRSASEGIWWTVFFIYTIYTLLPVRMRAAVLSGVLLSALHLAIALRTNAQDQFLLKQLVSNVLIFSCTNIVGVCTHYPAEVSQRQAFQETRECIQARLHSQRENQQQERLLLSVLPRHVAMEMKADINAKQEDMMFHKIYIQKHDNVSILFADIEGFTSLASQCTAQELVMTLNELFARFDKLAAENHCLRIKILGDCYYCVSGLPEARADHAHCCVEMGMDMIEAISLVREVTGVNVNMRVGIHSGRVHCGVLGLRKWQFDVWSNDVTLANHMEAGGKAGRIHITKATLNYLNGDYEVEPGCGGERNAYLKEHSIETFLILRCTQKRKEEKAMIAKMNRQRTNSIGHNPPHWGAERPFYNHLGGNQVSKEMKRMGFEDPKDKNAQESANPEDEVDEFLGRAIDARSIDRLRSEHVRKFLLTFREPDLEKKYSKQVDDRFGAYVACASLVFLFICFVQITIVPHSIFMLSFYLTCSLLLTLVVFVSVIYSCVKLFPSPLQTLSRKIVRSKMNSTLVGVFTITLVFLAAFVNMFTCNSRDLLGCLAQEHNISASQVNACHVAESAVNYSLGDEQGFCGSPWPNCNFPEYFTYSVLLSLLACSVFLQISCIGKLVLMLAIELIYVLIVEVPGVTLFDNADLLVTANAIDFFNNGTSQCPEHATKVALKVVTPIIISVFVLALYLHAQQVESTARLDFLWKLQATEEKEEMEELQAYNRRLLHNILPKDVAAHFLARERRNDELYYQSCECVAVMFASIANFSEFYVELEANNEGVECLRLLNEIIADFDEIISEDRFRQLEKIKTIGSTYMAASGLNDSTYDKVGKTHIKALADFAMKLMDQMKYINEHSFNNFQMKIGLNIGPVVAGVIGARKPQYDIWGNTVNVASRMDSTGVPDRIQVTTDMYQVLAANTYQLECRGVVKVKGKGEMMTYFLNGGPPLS

IC50 [µM] | Structure (SMILES)
> 200 | Nc1ncnc2c1ncn2[C@@H]1CC[C@@H](OCC(=O)O)C1
> 200 | Nc1ncnc2c1ncn2[C@H]1CC[C@@H](OCC(=O)O)C1
78 | Nc1ncnc2c1ncn2[C@H]1C=C[C@@H](OCC(=O)O)C1
98 | Nc1ncnc2c1ncn2[C@@H]1C=C[C@H](OCC(=O)O)C1
79 | Nc1ncnc2c1ncn2[C@@H]1CC[C@H](OCC(=O)O)C1
72 | Nc1ncnc2c1ncn2[C@@H]1C=C[C@@H](OCC(=O)O)C1
> 200 | Nc1ncnc2c1ncn2[C@H]1CC[C@H](OCC(=O)O)C1
> 200 | Nc1ncnc2c1ncn2[C@H]1C=C[C@H](OCC(=O)O)C1
102 | Nc1ncnc2c1ncn2[C@@H]1C=C[C@H](OCC(=O)NO)C1 (stereo in doubt; 5a)
13.6 | Nc1ncnc2c1ncn2[C@H]1C=C[C@@H](OCC(=O)NO)C1 (stereo in doubt; 5b)
116 | Nc1ncnc2c1ncn2[C@H]1C=C[C@@H](OCC(=O)NO)C1 (stereo in doubt; 5c)
96 | Nc1ncnc2c1ncn2[C@@H]1C=C[C@H](OCC(=O)NO)C1 (stereo in doubt; 5d)
110 | Nc1ncnc2c1ncn2[C@H]1CC[C@@H](OCC(=O)NO)C1 (stereo in doubt; 8a)
10.8 | Nc1ncnc2c1ncn2[C@@H]1CC[C@H](OCC(=O)NO)C1 (stereo in doubt; 8b)
> 200 | Nc1ncnc2c1ncn2[C@H]1CC[C@@H](OCC(=O)NO)C1 (stereo in doubt; 8c)
109 | Nc1ncnc2c1ncn2[C@@H]1CC[C@H](OCC(=O)NO)C1 (stereo in doubt; 8d)
